Laboratory results as given in US20120039865A1, “IDENTIFICATION OF SORTILIN AS A NEURONAL RECEPTOR FOR THE FRONTOTEMPORAL DEMENTIA PROTEIN, PROGRANULIN” (Yale University, priority 2008, published 2012).

Key:
[1] = system: COS-7 cells transfected with empty vector; assay: AP-PGRN binding to COS-7 cells transfected with empty vector; details: 20 nM AP-PGRN
Method: To determine the molecular nature of the neuronal binding site of PGRN, expression cloning experiments utilizing AP-PGRN as a tagged ligand were conducted. COS-7 (ATCC No. CRL-1651) cells were transfected with expression vectors containing mouse cDNAs using FUGENE® 6 according to manufacturer's specifications (Roche). An arrayed adult mouse brain cDNA library (OriGene) of 225,000 clones was screened in pools of 5,000 at a time, as well as a library consisting of 352 individual preparations of cDNAs encoding transmembrane proteins (GFC-transfection array panel, OriGene). The COS-7 cells that specifically bound AP-PGRN (5 nM) contained a single cDNA clone, which encoded a single-pass, membrane-spanning surface glycoprotein that supports high affinity AP-PGRN binding (FIG. 2A, upper-right panel). […] As in mouse cortical neurons, binding of 5 nM AP-PGRN to Sort-1 (PGRN-R) in COS-7 cells was displaceable by excess untagged PGRN (100 nM) and was saturable, with an apparent Kd of 6 nM (FIG. 2A, lower-right panel, and 2B). The binding affinity of AP-PRGN measured for Sort1-transfected COS-7 cells and for neurons was indistinguishable, with a Kd of 5-10 nM (FIG. 2B, 6 nM, and data not shown). In both cases, unlabeled 100 nM PGRN displaced binding (FIG. 2A, lower-right panel, and FIG. 3A, right panel).

SorCS1 = target: T1, SorCS1 (Mus musculus, UniProt Q9JLC4); assay: AP-PGRN binding to COS-7 cells expressing SorCS1; details: 120 nM AP-PGRN
T1 construct: host or cells: COS-7
T1 sequence (Q9JLC4 34-1167): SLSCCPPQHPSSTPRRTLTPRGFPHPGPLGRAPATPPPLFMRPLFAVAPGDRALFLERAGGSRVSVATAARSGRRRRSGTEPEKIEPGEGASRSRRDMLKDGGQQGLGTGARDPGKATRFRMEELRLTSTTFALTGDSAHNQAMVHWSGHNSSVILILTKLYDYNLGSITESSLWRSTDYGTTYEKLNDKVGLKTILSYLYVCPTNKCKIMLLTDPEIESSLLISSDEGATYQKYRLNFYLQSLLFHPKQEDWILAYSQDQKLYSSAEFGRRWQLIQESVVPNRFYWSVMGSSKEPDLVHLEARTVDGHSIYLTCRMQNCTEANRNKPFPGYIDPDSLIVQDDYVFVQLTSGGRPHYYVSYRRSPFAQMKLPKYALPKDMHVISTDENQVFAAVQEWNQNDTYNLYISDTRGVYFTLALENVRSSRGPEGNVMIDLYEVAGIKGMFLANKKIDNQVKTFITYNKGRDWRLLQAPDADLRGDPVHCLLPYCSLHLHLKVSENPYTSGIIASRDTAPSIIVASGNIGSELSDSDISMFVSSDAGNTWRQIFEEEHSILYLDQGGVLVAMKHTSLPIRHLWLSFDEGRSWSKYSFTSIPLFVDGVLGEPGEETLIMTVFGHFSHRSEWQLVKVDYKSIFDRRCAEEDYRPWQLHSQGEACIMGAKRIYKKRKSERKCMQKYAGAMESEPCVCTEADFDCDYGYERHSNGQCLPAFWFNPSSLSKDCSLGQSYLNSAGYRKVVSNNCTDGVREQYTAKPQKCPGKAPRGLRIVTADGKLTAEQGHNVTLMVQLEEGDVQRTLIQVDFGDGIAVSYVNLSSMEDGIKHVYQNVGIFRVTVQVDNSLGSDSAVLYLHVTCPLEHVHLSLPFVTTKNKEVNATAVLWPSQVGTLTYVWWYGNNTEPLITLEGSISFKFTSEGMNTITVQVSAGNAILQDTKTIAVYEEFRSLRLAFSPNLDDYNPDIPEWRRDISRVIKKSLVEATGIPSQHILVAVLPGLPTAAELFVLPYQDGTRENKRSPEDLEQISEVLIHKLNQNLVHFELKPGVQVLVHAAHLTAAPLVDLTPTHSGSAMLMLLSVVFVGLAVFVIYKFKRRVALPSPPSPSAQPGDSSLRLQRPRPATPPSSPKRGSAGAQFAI
Description: (§1) The human SorLA expression vector was provided by Anders Nykjaer, M.D., Ph.D., Aarhus University, Aarhus, Denmark (Jacobsen, L., et al., J. Biol. Chem. 276:22788-22796 (2001); Gliemann, J., et al., Biochem J. 381:203-212 (2004); GenBank Accession No. U60975), and the mouse SorCS1 expression vector in pCMV-Sport6 was obtained from Open Biosystems (GenBank Accession No. BC007486). […] A fragment of PGRN, termed PGRN-E in the literature, binds to sortilin with the same affinity as does full length PGRN (data not shown).

SorLA = target: T2, SorLA (Homo sapiens, UniProt Q92673); assay: AP-PGRN binding to COS-7 cells expressing SorLA; details: 120 nM AP-PGRN
T2 construct: host or cells: COS-7
Description: as §1

[2] = system: Rat (Sprague-Dawley) cortical neurons; assay: AP-tagged ligand binding to cultured rat cortical neurons
Method: (§2) Rat (Sprague-Dawley) cortical neurons were isolated from E18 embryos and cultured in vitro for 3-21 days. Cultures were maintained in Neurobasal-A medium supplemented with B27, GLUTAMAX™ (2 mM), sodium pyruvate (1 mM), penicillin, and streptomycin. The binding of 10 nM AP-PGRN or 10 nM AP was detected as a dark reaction product produced by alkaline phosphatase (AP). Binding was measured as follows. The AP tagged ligand (in NBA) was incubated with the cortical neurons for 1 hr at 4° C., washed three times with HBH buffer, fixed with formaldehyde, and after washing again with HBH the neurons were incubated in a 67° C. oven to inactivate the endogenous AP. The tagged AP was then visualized using AP substrate 5-bromo-4-chloro-3-indolyl phosphate/nitro blue tetrazolium, which results in a dark precipitate. […] The addition of 100 nM Flag-PGRN displaced 10 nM AP-PGRN (FIG. 1C, middle panel).

[3] = system: mouse E17 cortical neurons; assay: AP-PGRN binding to mouse cortical neurons (wild type, sortilin +/- and -/-)
Method: as §2
Binding was measured according to the methods described above by preincubating 100 nM PGRN with the cortical neurons for 1 hr and using a 5 nM AP-PGRN and 100 nM untagged PGRN mixture. […]
Gene-targeted sortilin −/− and +/− mice from Anders Nykjaer, M.D., Ph.D., Aarhus University, Aarhus, Denmark, were used to obtain cultures of cortical neurons. The binding of 2 nM AP-PGRN to cortical neurons isolated from sortilin −/− (FIG. 3B, left panel) and +/− (FIG. 3B, right panel) mice was evaluated. […]

[4] = target: T3, sortilin-1 (Sort1; PGRN-R) (Mus musculus, UniProt Q6PHU5); assay: AP-PGRN binding to COS-7 cells transfected with Sort1 cDNA
T3 construct: host or cells: COS-7 (ATCC No. CRL-1651)
T3 sequence (Q6PHU5 74-825): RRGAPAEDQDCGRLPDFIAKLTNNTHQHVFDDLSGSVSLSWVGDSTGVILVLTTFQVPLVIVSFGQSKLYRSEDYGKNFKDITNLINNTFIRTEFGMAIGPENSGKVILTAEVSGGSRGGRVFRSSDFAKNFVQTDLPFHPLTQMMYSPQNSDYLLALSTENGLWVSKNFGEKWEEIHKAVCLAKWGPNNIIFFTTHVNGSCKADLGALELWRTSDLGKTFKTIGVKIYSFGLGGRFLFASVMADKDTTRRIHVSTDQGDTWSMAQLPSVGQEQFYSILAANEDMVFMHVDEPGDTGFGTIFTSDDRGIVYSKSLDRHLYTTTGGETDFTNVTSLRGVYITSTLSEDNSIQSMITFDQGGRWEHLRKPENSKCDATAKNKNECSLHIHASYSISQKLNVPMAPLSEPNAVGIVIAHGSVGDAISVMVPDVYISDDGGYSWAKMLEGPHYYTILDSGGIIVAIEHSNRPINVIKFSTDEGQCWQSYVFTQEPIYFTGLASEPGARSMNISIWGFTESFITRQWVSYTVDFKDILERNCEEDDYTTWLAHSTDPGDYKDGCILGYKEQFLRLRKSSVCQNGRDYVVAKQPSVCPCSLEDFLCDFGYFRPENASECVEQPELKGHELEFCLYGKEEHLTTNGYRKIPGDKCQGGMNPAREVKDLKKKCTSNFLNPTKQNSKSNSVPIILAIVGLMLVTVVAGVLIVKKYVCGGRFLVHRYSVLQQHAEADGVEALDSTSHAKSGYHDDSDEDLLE
Method: as §2
To determine the molecular nature of the neuronal binding site of PGRN, expression cloning experiments utilizing AP-PGRN as a tagged ligand were conducted. COS-7 (ATCC No. CRL-1651) cells were transfected with expression vectors containing mouse cDNAs using FUGENE® 6 according to manufacturer's specifications (Roche). […]

[5] = target: T4, purified ectodomain of Sort1 (amino acids 60-725 of the human sequence) (Homo sapiens, UniProt Q99523); assay: Physical complex of purified proteins isolated by affinity chromatography; assay type: binding; details: data not shown
T4 sequence (Q99523 60-725): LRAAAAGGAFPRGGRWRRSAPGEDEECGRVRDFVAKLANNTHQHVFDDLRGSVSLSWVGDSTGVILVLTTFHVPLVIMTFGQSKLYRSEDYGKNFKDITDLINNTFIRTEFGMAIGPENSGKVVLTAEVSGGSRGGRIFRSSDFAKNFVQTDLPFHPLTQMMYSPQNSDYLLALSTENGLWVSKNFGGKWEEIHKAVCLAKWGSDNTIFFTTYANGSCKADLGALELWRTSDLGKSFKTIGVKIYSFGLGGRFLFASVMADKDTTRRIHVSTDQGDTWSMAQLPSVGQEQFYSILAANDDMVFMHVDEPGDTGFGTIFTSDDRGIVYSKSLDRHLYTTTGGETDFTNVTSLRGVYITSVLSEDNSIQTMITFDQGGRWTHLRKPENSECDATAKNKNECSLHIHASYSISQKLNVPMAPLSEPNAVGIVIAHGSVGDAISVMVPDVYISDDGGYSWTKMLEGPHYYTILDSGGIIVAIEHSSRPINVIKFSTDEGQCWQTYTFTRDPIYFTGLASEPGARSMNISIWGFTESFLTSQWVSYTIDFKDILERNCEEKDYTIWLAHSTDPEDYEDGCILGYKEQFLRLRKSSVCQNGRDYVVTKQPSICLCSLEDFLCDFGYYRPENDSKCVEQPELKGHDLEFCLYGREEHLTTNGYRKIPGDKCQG

T2 sequence (Q92673 82-2214): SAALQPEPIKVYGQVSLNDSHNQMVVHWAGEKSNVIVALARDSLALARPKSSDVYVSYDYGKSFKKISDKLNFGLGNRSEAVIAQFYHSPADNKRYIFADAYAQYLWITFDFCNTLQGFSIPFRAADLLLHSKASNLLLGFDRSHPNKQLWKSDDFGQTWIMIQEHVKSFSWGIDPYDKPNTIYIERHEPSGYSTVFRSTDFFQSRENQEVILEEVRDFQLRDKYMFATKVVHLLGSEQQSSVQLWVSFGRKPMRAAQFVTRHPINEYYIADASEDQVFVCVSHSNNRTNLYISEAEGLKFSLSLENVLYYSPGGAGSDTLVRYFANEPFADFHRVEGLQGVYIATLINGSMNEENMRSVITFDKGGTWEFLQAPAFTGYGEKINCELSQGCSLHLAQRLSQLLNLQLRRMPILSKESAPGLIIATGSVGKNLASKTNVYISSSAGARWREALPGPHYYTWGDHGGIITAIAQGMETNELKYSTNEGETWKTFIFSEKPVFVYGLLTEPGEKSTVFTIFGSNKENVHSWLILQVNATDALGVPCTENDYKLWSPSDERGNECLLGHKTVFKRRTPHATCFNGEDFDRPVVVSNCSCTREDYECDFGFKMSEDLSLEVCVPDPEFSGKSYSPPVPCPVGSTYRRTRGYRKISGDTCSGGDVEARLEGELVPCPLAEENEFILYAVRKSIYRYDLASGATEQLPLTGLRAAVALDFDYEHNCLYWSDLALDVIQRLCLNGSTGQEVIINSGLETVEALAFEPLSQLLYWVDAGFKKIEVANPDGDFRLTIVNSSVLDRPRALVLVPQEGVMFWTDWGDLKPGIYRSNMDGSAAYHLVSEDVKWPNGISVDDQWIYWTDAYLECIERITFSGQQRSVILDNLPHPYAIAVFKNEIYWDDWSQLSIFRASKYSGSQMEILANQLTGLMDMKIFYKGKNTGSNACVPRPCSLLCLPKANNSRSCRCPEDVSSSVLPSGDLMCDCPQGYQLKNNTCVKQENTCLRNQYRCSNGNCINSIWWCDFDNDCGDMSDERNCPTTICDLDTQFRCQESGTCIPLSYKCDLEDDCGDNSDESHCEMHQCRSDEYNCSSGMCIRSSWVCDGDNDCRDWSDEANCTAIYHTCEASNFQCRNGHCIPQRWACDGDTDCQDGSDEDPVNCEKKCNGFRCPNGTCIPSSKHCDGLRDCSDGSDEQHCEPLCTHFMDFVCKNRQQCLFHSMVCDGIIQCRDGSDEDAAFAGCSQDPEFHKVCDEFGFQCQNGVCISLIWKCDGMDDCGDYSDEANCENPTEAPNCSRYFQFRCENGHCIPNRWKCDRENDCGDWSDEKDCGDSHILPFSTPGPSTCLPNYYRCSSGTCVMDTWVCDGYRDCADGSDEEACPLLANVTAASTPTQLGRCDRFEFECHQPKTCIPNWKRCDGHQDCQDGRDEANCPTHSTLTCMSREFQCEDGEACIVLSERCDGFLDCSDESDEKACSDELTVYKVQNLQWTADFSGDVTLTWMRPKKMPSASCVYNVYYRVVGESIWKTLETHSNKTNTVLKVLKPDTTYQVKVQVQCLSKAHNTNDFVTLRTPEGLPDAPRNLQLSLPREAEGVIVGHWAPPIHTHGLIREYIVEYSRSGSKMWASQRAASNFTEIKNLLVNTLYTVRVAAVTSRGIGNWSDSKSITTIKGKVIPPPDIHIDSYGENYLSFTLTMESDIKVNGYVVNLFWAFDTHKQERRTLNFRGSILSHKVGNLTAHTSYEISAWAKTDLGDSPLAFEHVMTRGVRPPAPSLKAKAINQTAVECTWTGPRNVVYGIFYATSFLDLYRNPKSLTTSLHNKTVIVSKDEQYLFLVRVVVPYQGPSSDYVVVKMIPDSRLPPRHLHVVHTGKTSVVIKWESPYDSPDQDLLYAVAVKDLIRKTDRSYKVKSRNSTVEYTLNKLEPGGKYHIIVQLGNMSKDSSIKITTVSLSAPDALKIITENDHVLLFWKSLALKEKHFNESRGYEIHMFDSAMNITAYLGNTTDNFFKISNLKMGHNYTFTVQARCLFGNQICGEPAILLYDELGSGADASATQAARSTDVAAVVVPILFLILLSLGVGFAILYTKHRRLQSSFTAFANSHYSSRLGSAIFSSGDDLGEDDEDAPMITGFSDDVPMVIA

Row | affinity for SorCS1 (SorCS1) | affinity for SorLA (SorLA) | binding to cultured cortical neurons (dark AP reaction product) ([2]; 10 nM AP-tagged ligand, 1 hr at 4° C.) | AP-PGRN binding in sortilin -/- cortical neurons ([3]; 2 nM AP-PGRN, neurons from sortilin -/- vs +/- mice) | Kd ([3]; neurons, species not stated, data not shown, read-out: binding affinity Kd for neurons) | binding to Sort1-transfected COS-7 cells ([4]; 20 nM ligand) | Kd ([4]; read-out: binding affinity Kd for Sort1-transfected COS-7 cells) | complex formation with Sort1 ectodomain [5] | displacement of AP-PGRN binding ([2]; 100 nM competitor against 10 nM AP-PGRN) | Substance | binding to empty-vector COS-7 cells [1]
1 | no affinity | no affinity | specifically and discreetly bound | 30 % of control values | 5 to 10 nM | bound | 5 to 10 nM |  |  | AP-PGRN: alkaline-phosphatase (AP) tagged human progranulin fusion protein produced in HEK293T cells | did not bind
2 |  |  |  |  |  |  |  | formed a physical complex | displaced | Flag-PGRN: FLAG-tagged PGRN produced by HEK293T cell transfection, purified by anti-FLAG affinity gel | 
